According to the NIST ThermoML archive (doi:10.1016/j.jct.2019.03.022):

Details: Liquid, Frequency=5 MHz, Pulse-echo method

Cc1ccc(C)cc1 [1,4-dimethylbenzene]
Details	speed of sound [m/s]
305.93 K, 3690 kPa	1296.5
305.97 K, 40270 kPa	1464.5
305.98 K, 5250 kPa	1304.4
305.98 K, 45030 kPa	1483.5
305.98 K, 50870 kPa	1506
305.99 K, 1000 kPa	1281.8
305.99 K, 35160 kPa	1443.6
306 K, 4900 kPa	1302.5
306 K, 13840 kPa	1347.7
306 K, 30490 kPa	1423.8
306.02 K, 2050 kPa	1287.2
306.03 K, 9400 kPa	1325.6
306.05 K, 6960 kPa	1312.9
306.06 K, 19900 kPa	1376.2
306.07 K, 2050 kPa	1287.1
306.07 K, 16500 kPa	1360.1
306.07 K, 24630 kPa	1397.8
306.1 K, 29650 kPa	1419.7
306.14 K, 26930 kPa	1407.8
306.18 K, 28370 kPa	1413.9
323.47 K, 41260 kPa	1410.2
323.47 K, 49810 kPa	1445.3
323.47 K, 59650 kPa	1483.5
323.48 K, 34540 kPa	1381.1
323.48 K, 54770 kPa	1464.8
323.48 K, 55430 kPa	1467.4
323.49 K, 46870 kPa	1433.4
323.51 K, 49380 kPa	1443.5
323.51 K, 65910 kPa	1506.7
323.52 K, 30290 kPa	1361.8
323.53 K, 11470 kPa	1269.8
323.54 K, 1060 kPa	1211.5
323.54 K, 6060 kPa	1240.3
323.54 K, 44230 kPa	1422.4
323.54 K, 45010 kPa	1425.6
323.55 K, 18570 kPa	1306.1
323.56 K, 210 kPa	1206.4
323.57 K, 490 kPa	1208.1
323.57 K, 2600 kPa	1220.4
323.57 K, 10070 kPa	1262.1
323.57 K, 20900 kPa	1317.5
323.57 K, 39580 kPa	1402.7
323.57 K, 44830 kPa	1424.7
323.58 K, 5070 kPa	1234.5
323.58 K, 6090 kPa	1240.3
323.58 K, 11110 kPa	1267.7
323.58 K, 34830 kPa	1382
323.59 K, 7490 kPa	1248
323.59 K, 17890 kPa	1302.5
323.59 K, 25130 kPa	1337.7
323.59 K, 30210 kPa	1361.3
323.6 K, 15130 kPa	1288.6
335.95 K, 55000 kPa	1427.5
335.95 K, 65380 kPa	1467.9
335.96 K, 61040 kPa	1451.3
335.97 K, 50590 kPa	1409.6
335.98 K, 1230 kPa	1164
335.98 K, 2630 kPa	1172.6
335.98 K, 5600 kPa	1190.4
335.98 K, 45230 kPa	1387.1
335.99 K, 280 kPa	1158
335.99 K, 570 kPa	1159.8
335.99 K, 10300 kPa	1217.5
335.99 K, 20370 kPa	1271.4
336 K, 10270 kPa	1217.2
336 K, 24830 kPa	1293.8
336 K, 30890 kPa	1323
336 K, 34840 kPa	1341.2
336.01 K, 14980 kPa	1243.1
336.01 K, 20750 kPa	1273.3
336.02 K, 40670 kPa	1367.2
336.03 K, 41380 kPa	1370.3
336.05 K, 41270 kPa	1369.8
336.06 K, 31080 kPa	1323.6
348.25 K, 40 kPa	1108.8
348.27 K, 2120 kPa	1122.5
348.28 K, 4090 kPa	1135.2
348.29 K, 2590 kPa	1125.5
348.3 K, 2110 kPa	1122.3
348.32 K, 1270 kPa	1116.8
348.32 K, 8600 kPa	1162.9
348.32 K, 8900 kPa	1164.7
348.35 K, 10880 kPa	1176.3
348.36 K, 15220 kPa	1201.1
348.36 K, 20050 kPa	1227.6
348.37 K, 14620 kPa	1197.7
348.37 K, 60580 kPa	1413.4
348.39 K, 59820 kPa	1410.3
348.39 K, 64180 kPa	1427.6
348.4 K, 64670 kPa	1429.6
348.41 K, 59890 kPa	1410.6
348.42 K, 45170 kPa	1348.7
348.42 K, 49930 kPa	1369.4
348.42 K, 54750 kPa	1389.6
348.43 K, 29340 kPa	1275
348.43 K, 33900 kPa	1297.2
348.43 K, 39830 kPa	1324.8
348.45 K, 24930 kPa	1252.9
355.89 K, 12280 kPa	1158.2
355.92 K, 15640 kPa	1177.7
355.94 K, 920 kPa	1085.7
355.94 K, 20950 kPa	1207.3
355.95 K, 490 kPa	1082.6
355.95 K, 2620 kPa	1097
355.95 K, 25050 kPa	1229.2
355.95 K, 31130 kPa	1260.2
355.96 K, 10930 kPa	1149.9
355.98 K, 270 kPa	1081
355.98 K, 5370 kPa	1115.1
355.98 K, 65160 kPa	1410.3
356 K, 59390 kPa	1387.1
356.02 K, 41360 kPa	1308.9
356.02 K, 45060 kPa	1325.7
356.04 K, 54960 kPa	1368.5
356.05 K, 34600 kPa	1276.9
356.08 K, 50520 kPa	1349.5
373.53 K, 2520 kPa	1031.7
373.53 K, 5450 kPa	1052.5
373.54 K, 2530 kPa	1031.7
373.55 K, 950 kPa	1020.1
373.57 K, 44340 kPa	1271.8
373.58 K, 570 kPa	1017.1
373.58 K, 49640 kPa	1296.2
373.59 K, 240 kPa	1014.6
373.6 K, 10260 kPa	1084.6
373.6 K, 19750 kPa	1143.4
373.6 K, 29800 kPa	1199.1
373.6 K, 29850 kPa	1199.3
373.6 K, 35000 kPa	1226.1
373.61 K, 14920 kPa	1114.2
373.61 K, 59070 kPa	1337.5
373.62 K, 20290 kPa	1146.4
373.62 K, 39790 kPa	1249.8
373.62 K, 40800 kPa	1254.9
373.62 K, 58970 kPa	1337.1
373.63 K, 24920 kPa	1172.7
373.63 K, 54980 kPa	1319.8
373.64 K, 64880 kPa	1361.7
398.19 K, 37260 kPa	1168.3
398.2 K, 220 kPa	923.76
398.2 K, 29920 kPa	1127.9
398.2 K, 37270 kPa	1168.3
398.2 K, 40070 kPa	1182.9
398.2 K, 54810 kPa	1254.7
398.2 K, 60130 kPa	1278.8
398.21 K, 500 kPa	926.17
398.21 K, 34890 kPa	1155.4
398.21 K, 44950 kPa	1207.5
398.21 K, 64730 kPa	1299
398.22 K, 1040 kPa	930.76
398.22 K, 20010 kPa	1068.5
398.22 K, 24890 kPa	1098.6
398.23 K, 50040 kPa	1232.3
398.24 K, 5190 kPa	964.55
398.24 K, 15110 kPa	1036.5
398.24 K, 31220 kPa	1135.2
398.25 K, 2490 kPa	942.77
398.25 K, 10300 kPa	1002.9
398.25 K, 19720 kPa	1066.6
398.25 K, 31220 kPa	1135.2
398.26 K, 12650 kPa	1019.5
422.57 K, 5690 kPa	886.27
422.65 K, 2630 kPa	858.44
422.7 K, 14830 kPa	959.38
422.72 K, 550 kPa	838.3
422.72 K, 50170 kPa	1171.8
422.73 K, 190 kPa	834.7
422.73 K, 28590 kPa	1052.1
422.73 K, 54780 kPa	1194.6
422.74 K, 1230 kPa	844.88
422.74 K, 9190 kPa	915.48
422.74 K, 44830 kPa	1144.4
422.75 K, 780 kPa	840.37
422.75 K, 10020 kPa	922.14
422.75 K, 19940 kPa	995.75
422.75 K, 24810 kPa	1028.2
422.75 K, 29890 kPa	1060
422.75 K, 64580 kPa	1240.2
422.76 K, 59900 kPa	1218.7
422.77 K, 34850 kPa	1089.3
422.77 K, 40720 kPa	1122.3
446.94 K, 5130 kPa	800.91
446.99 K, 10180 kPa	848.37
446.99 K, 14830 kPa	887.97
447 K, 19890 kPa	927.32
447.01 K, 7300 kPa	821.88
447.02 K, 1020 kPa	756.94
447.02 K, 24900 kPa	963.22
447.03 K, 22500 kPa	946.32
447.07 K, 300 kPa	748.43
447.07 K, 580 kPa	751.73
447.08 K, 49880 kPa	1113.3
447.08 K, 64750 kPa	1187.3
447.09 K, 30510 kPa	1000.7
447.11 K, 54450 kPa	1137
447.12 K, 40150 kPa	1059.5
447.13 K, 35270 kPa	1030.4
447.13 K, 45010 kPa	1086.9
447.13 K, 59760 kPa	1163.3

Cc1ccccc1 [toluene]
Details	speed of sound [m/s]
323.29 K, 10200 kPa	1253.2
323.32 K, 20480 kPa	1305.4
323.32 K, 20600 kPa	1305.9
323.34 K, 31540 kPa	1356.7
323.37 K, 44870 kPa	1413.5
323.38 K, 60790 kPa	1475.5
323.39 K, 60820 kPa	1475.5
373.82 K, 7570 kPa	1046.5
373.83 K, 2170 kPa	1007.9
373.83 K, 21270 kPa	1132.5
373.85 K, 35520 kPa	1209.3
373.87 K, 64470 kPa	1340.7
373.9 K, 50350 kPa	1280
422.93 K, 6580 kPa	863.73
422.98 K, 20740 kPa	974.49
423.01 K, 36450 kPa	1073.4
423.04 K, 56200 kPa	1176.9

O [water]
Details	speed of sound [m/s]
306.13 K, 1030 kPa	1517.3
306.14 K, 4950 kPa	1524
306.15 K, 19980 kPa	1549.5
306.15 K, 59750 kPa	1616.5
306.16 K, 29980 kPa	1566.5
306.16 K, 39950 kPa	1583.3
306.16 K, 49950 kPa	1600.1
357.97 K, 20280 kPa	1593.1
357.99 K, 400 kPa	1553.7
358 K, 30380 kPa	1612.5
358 K, 40230 kPa	1630.9
358.01 K, 50080 kPa	1649
358.03 K, 59980 kPa	1666.8
420.93 K, 1180 kPa	1471.5
421.06 K, 20130 kPa	1520.6
421.12 K, 40030 kPa	1568.6
421.2 K, 59900 kPa	1613.1
